One may read the pEC50 as −log10 of the EC50, conventionally taken in molar units.

The record followed here is BindingDB's records for doi:10.1021/acs.jmedchem.8b01200 (Fuji Research Park, R&D Division, 2018).

pEC50: −log10 of the molar value. A value given as a limit tells only on which side of the number the result lay.

A short description of the assay: Agonist activity at PPARgamma in human MKN45 cells assessed as cell differentiation after 5 days by Hoechst 33342 staining-based assay.

As to `CCCCCS(=O)(=O)NC(=O)c1ccc2nc(C)n(Cc3ccc(Cl)cc3Cl)c2c1` [ATx08-001], the pEC50 is under 6.30.
